Results taken from BindingDB's records for patent US20250282736 (ST. JUDE CHILDREN''S RESEARCH HOSPITAL, 2025).

Target: T1, PXR (Nuclear receptor subfamily 1 group I member 2) (Homo sapiens, UniProt O75469)
T1 sequence (O75469 whole entry): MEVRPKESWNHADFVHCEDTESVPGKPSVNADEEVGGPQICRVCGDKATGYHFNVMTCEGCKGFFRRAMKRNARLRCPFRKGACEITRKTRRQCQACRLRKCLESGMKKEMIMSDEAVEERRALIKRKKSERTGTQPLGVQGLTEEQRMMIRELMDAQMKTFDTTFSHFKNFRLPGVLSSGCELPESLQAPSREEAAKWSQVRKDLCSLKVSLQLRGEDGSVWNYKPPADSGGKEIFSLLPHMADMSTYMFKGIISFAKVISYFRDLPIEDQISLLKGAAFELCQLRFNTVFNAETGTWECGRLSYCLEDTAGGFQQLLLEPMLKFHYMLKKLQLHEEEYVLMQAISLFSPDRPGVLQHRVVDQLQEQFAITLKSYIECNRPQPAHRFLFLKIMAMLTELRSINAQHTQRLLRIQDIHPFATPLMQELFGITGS
Experiment: In Vitro Assay
From the text: PXR can be determined in an in vitro assay system. Such in vitro assay systems include assay such as the assays as described herein.

SMILES	IC50 [µM]
COc1ccc(Cl)cc1-n1nnc(C(=O)Nc2cc(C(C)(C)C)ccc2OCC(=O)O)c1C [US20250282736, Compound B25]	0.36
CCCC(CC)Oc1ccc(C(C)(C)C)cc1NC(=O)c1nnn(-c2cc(OC)ccc2OC)c1C (configuration not stated) [US20250282736, Compound J1]	0.0038
